# ChEMBL document CHEMBL1129224, “Rapid decomposition of peroxynitrite by manganese porphyrin-antioxidant redox couples” (Bioorg Med Chem Lett, 1997)
# Key:
# Format in all cases: ADME
# [1] = The compound was evaluated for the apparent first-order rate of reaction of ONOO- with antioxidant in presence of catalyst
# [2] = The compound was evaluated for the rate of oxoMn (IV) reduction
# [3] = The compound was evaluated for the apparent first-order rate of reaction of ONOO- with antioxidant
structure (smiles),measurement,setting,value
O=C1O[C@H]([C@@H](O)CO)C(O)=C1O [ASCORBIC ACID],k cat,[1],2200000 M⁻¹ s⁻¹
same,kred,[2],54000000 M⁻¹ s⁻¹
same,kONOO-,[3],88 M⁻¹ s⁻¹
N[C@@H](CCC(=O)N[C@@H](CS)C(=O)NCC(=O)O)C(=O)O [GLUTATHIONE],k cat,[1],3200000 M⁻¹ s⁻¹
same,kred,[2],130000 M⁻¹ s⁻¹
same,kONOO-,[3],580 M⁻¹ s⁻¹
Cc1c(C)c2c(c(C)c1O)CCC(C)(C(=O)O)O2 (centres undefined) [TROLOX],k cat,[1],1100000 M⁻¹ s⁻¹
same,kred,[2],7000000 M⁻¹ s⁻¹
same,kONOO-,[3],33 M⁻¹ s⁻¹
